These results are taken from patent publication US20090099376A1, “TIGECYCLINE AND METHODS OF PREPARING INTERMEDIATES” (Wyeth, priority 2007, published 2009).

Each structure is given as a SMILES string. Converted amounts (≈) assume the structure as drawn. A value given as a limit tells only on which side of the number the result lay.

Data set [1] in a line: Solubility at RT in hydrogenation solvent mixtures doped with IPA. The data set is classed as physicochemical. The text has this: An investigation by examining the solubility characteristics of 9-nitrominocycline and 9-aminominocycline sulfate in the presence of various amounts of IPA to gauge whether the starting material and/or product could in fact precipitate out in the reaction solvent was initiated.

Data set [2] can be described thus: Dynamic vapor sorption (DVS) study. The data set is classed as physicochemical. To be noted: RH 90%. The text has this: As a comparison, we ran the DVS on 9-nitrominocycline. This intermediate picks up to 40% by weight of water at RH 90%.
The test system of data set [3] is organisms carrying either of the two major forms of tetracycline resistance: efflux and ribosomal protection. As to conditions: organisms with tetracycline resistance by efflux or ribosomal protection; cited from earlier work.
The subject of data set [4] is methicillin-resistant Staphylococcus aureus. To be noted: cited from earlier work.
The subject of data set [5] is penicillin-resistant Streptococcus pneumoniae. As to conditions: cited from earlier work.
Data set [6] concerns vancomycin-resistant enterococci. To be noted: cited from earlier work.
The mark [7] stands for this setting: 80:20 water:methanol with 20% wt/wt IPA, aqueous with cosolvent or surfactant or cyclodextrin, Exp. 8: +20% wt/wt IPA, 80:20 water:methanol.
Where [8] appears, read: 80:20 water:methanol with 35% wt/wt IPA, aqueous with cosolvent or surfactant or cyclodextrin, Exp. 9: +35% wt/wt IPA, 80:20 water:methanol.
The mark [9] stands for this setting: 80:20 water:methanol with 50% wt/wt IPA, aqueous with cosolvent or surfactant or cyclodextrin, Exp. 10: +50% wt/wt IPA, 80:20 water:methanol.
Setting [10] is: v:v) with 0% wt/wt IPA, organic solvent or mixture, Exp. 1: MeOH:water (99:1, v:v) +0% wt/wt IPA.
Where [11] appears, read: v:v) with 4% wt/wt IPA, organic solvent or mixture, Exp. 2: MeOH:water (99:1, v:v) +4% wt/wt IPA.
The mark [12] stands for this setting: v:v) with 20% wt/wt IPA, organic solvent or mixture, Exp. 3: MeOH:water (99:1, v:v) +20% wt/wt IPA.
[13] abbreviates: v:v) with 35% wt/wt IPA, organic solvent or mixture, Exp. 4: MeOH:water (99:1, v:v) +35% wt/wt IPA.
Setting [14] is: v:v) with 50% wt/wt IPA, organic solvent or mixture, Exp. 5: MeOH:water (99:1, v:v) +50% wt/wt IPA.

Regarding `CN(C)c1cc(N)c(O)c2c1C[C@H]1C[C@H]3[C@H](N(C)C)C(O)=C(C(N)=O)C(=O)[C@@]3(O)C(O)=C1C2=O` [9-aminominocycline], the figures for the “Solubility (in words)” value in data set [1] (80:20 water:methanol) and in data set [1] (99:1 methanol:water) were “high” and “somewhat low”, respectively. The solubility in data set [1] (setting [7]) was determined as 243 mg/mL (≈ 514 mM); in data set [1] (setting [8]), 103 mg/mL (≈ 218 mM); in data set [1] (setting [9]), 58 mg/mL (≈ 123 mM); in data set [1] (organic solvent or mixture, Exp. 11: IPA Only), 1 mg/mL (≈ 2.12 mM); in data set [1] (setting [10]) it was 14 mg/mL (≈ 29.6 mM); in data set [1] (setting [11]), 16 mg/mL (≈ 33.9 mM). The solubility was found to be 12 mg/mL (≈ 25.4 mM) in data set [1] (setting [12]), 9 mg/mL (≈ 19 mM) in data set [1] (setting [13]) and 7 mg/mL (≈ 14.8 mM) in data set [1] (setting [14]). In addition, the “Solubility at RT” value in data set [1] (Exp. 6: +0% wt/wt IPA, 80:20 water:methanol) is reported as “high”; in data set [1] (Exp. 7: +4% wt/wt IPA, 80:20 water:methanol), “high”.
For the compound `CN(C)c1cc([N+](=O)[O-])c(O)c2c1C[C@H]1C[C@H]3[C@H](N(C)C)C(O)=C(C(N)=O)C(=O)[C@@]3(O)C(O)=C1C2=O` [9-nitrominocycline], in data set [1] (80:20 water:methanol), the “Solubility (in words)” value is reported as “fairly high”. Besides, the solubility was > 421 mg/mL in data set [1] (80:20 water:methanol with 0% wt/wt IPA, aqueous with cosolvent or surfactant or cyclodextrin, Exp. 6: +0% wt/wt IPA, 80:20 water:methanol); > 426 mg/mL in data set [1] (80:20 water:methanol with 4% wt/wt IPA, aqueous with cosolvent or surfactant or cyclodextrin, Exp. 7: +4% wt/wt IPA, 80:20 water:methanol); > 453 mg/mL in data set [1] (setting [7]); > 303 mg/mL in data set [1] (setting [8]); 333 mg/mL (≈ 663 mM) in data set [1] (setting [9]); > 466 mg/mL in data set [1] (setting [10]). Moreover, the solubility is 129 mg/mL (≈ 257 mM) in data set [1] (setting [11]), 68 mg/mL (≈ 135 mM) in data set [1] (setting [12]), 30 mg/mL (≈ 59.7 mM) in data set [1] (setting [13]) and 23 mg/mL (≈ 45.8 mM) in data set [1] (setting [14]). In data set [2], the “Water uptake in DVS” value was “up to 40 % by weight”.
Turning to `CN(C)c1cc(NC(=O)CNC(C)(C)C)c(O)c2c1C[C@H]1C[C@H]3[C@H](N(C)C)C(O)=C(C(N)=O)C(=O)[C@@]3(O)C(O)=C1C2=O` [Tigecycline, (4S,4aS,5aR,12aS)-9-[2-(tert-butylamino)acetamido]-4,7-bis(dimethylamino)-1,4,4a,5,5a,6,11,12a-octahydro-3,10,12,12a-tetrahydroxy-1,11-dioxo-2-naphthacenecarboxamide], the Antibacterial activity entry in data set [3], in data set [4], in data set [5] and in data set [6] was “active” in each case.

The term solubility denotes how much of the substance goes into solution per volume.
